Usually melting point stands for the temperature of the solid-liquid transition. Take `COc1ccc(COc2cccc(C(=O)Nc3ccc(S(C)(=O)=O)cc3)c2)cc1`: the melting point lay within 173 to 174 °C. The result for `CN1CN(C)C(=O)N(C)C1=O` reads 88 to 90 °C; that for `Cc1cc(Cl)cc2c1OCC(/C=C/C=C/C=C/C(=O)O)=C2`, 208 to 210 °C. Take `CCNc1nc(-c2ccc(NC(=O)NCc3cccnc3)cc2)ccc1C(=O)NCCN1CCCCC1`: the melting point was in the range of 164 to 165 °C. The figure for `OCc1nc2n(n1)-c1ccccc1N(c1cccc(C(F)(F)F)c1)C2` is 168 to 171 °C; for `CCCc1c(OCCCOc2cccc(C(=O)NCCCCc3cccnc3)c2)ccc(C(C)=O)c1O` it is 84 to 86 °C; for `Cc1nnc(-c2ccc3occ(-c4ccc(CO)cc4)c3c2)o1` it is 157 to 158 °C. `COCCOc1ccccc1-c1cc2[nH]c3ccc(OCc4ccccc4)cc3c2c2c1C(=O)NC2=O` came in with a melting point of 157 to 159 °C. The figure for `O=c1occ(-c2ccccc2)n1-c1ccc(F)cc1` is 145 to 147 °C; for `CN1CCN(c2cccc3c2C[C@H](NC(=O)c2ccc(C(=O)N4CCOCC4)cc2)CO3)CC1` it is 222 °C. The result for `CC(=O)NC(=O)c1cn(Cc2ccccc2)nc1OCc1ccc(OCc2nc(-c3ccco3)oc2C)cc1` reads 193 to 194 °C. As for `CN1CC=C(c2cc3ccccc3c(=O)[nH]2)CC1`, the melting point is 222 to 223 °C. The result for `O=C(c1ccccc1)c1cc(Cl)ccc1-n1cnnc1CN1C(=O)c2ccccc2C1=O` reads 229 to 230 °C; that for `Oc1ccc(-c2nc3ccccc3nc2-c2ccc(O)cc2)cc1`, 336 to 338 °C; that for `CC1c2ccccc2CN1NC(=O)c1ccc(Cl)c(S(N)(=O)=O)c1` (stereo unspecified), 208 to 210 °C.

`CCCNC(=O)c1ccc2c(c1)N(C(C)CN1CCCC1)c1ccccc1S2` (racemic): the melting point is 75 to 80 °C. The result for `CC(C)Cn1c(=O)n(C)c(=O)c2c(SCCCC(N)=O)n(Cc3cccc4ccccc34)cc21` reads 162 to 165 °C; that for `CCCc1c(OCCCOc2ccc(C(C)=O)c(OCCCC(=O)O)c2CCC)ccc(C(C)=O)c1O`, 50 to 53 °C; that for `Oc1ccccc1CCCC1CCNCC1`, 152 °C. Turning to `FC(F)(F)Oc1cccc(CN2CCC(Nc3nnc(C(F)(F)F)s3)CC2)c1`, the melting point was determined as 116 °C. The result for `Cc1cc(C#N)c(C)c(C(=O)Nc2ccc(Cl)cn2)n1` reads 264 °C. The result for `O=C(NCCCCN1CCN(C(c2ccccc2)c2ccccc2)CC1)c1cnc2cccc(O)c2c1O` reads 215 to 218 °C.

`N#Cc1cc2c(c(C(=O)O)c1)OC(c1ccccc1)(c1ccccc1)O2`: the melting point was 221 °C. Turning to `CCOC(=O)C1CCN(Cc2nc(NCc3ccc(OC)c(Cl)c3)c3c4c(oc3n2)CCCC4)CC1`, the melting point was determined as 152 °C.

Consider `CC(=O)NC(C(=O)NCc1ccncc1)c1ccco1` (stereo unspecified), for which the melting point is 168 to 170 °C. The figure for `CCCCCCCCCCc1nnn(CC(=O)Nc2c(C(C)C)cccc2C(C)C)n1` is 108 to 110 °C.

For the molecule `CSC1=NC(=O)/C(=C/c2ccccc2Nc2c(Cl)ccc(C)c2Cl)S1`, the melting point is 233 to 236 °C.

In turn, `Cc1ccc(C(=O)N2CCN(CCc3ccc(Cl)cc3)CC2)cc1` registered a melting point of 105 to 106 °C. On to `CC(=O)C1CCC2=C(C1)C(=O)c1cc3ccccc3cc1C2=O` (stereo unspecified), for which the melting point was 189 to 192 °C. The figure for `CCC(=O)OCC1OC(n2c(Cl)c(C=O)c3cc(Cl)c(Cl)cc32)C(O)C1O` (stereo unspecified) is 139 to 140 °C; for `Cc1cc2cc(C3CCN(C(=O)C4CC4)CC3)oc2cc1C` it is 80 to 83 °C. The result for `CNC1=NN(C(=O)c2ccccc2)C(C)(C)S1` reads 130 to 136 °C.

`O=C(c1nc2ccc(O)cc2[nH]1)N1CCC(=Cc2ccc(F)cc2)CC1`: the melting point lay within 105 to 106 °C. The result for `CC(C)CCCC(C)C1CCC2C3C(=O)C=C4CC(O)CCC4(C)C3CCC12C` (stereo unspecified) reads 169 to 170 °C. For `CC(=O)c1cccc(-n2ccnc2)c1`, the melting point lay in the range of 69 to 71 °C. In turn, `CCCCS(=O)(=O)NCCc1nc(-c2ccc(-c3ccccc3)cc2)c[nH]1` came in with a melting point of 168 °C. For `CC(=O)NC[C@H]1CN(c2ccc(C(=O)c3cnc4ccc(Br)cn34)cc2)C(=O)O1`, the melting point is 230 to 232 °C. `Cc1nc(CC(=O)O)no1`: the melting point is 101 to 103 °C.

The molecule `COCOc1cc(C(=O)OC)[nH]n1` yielded a melting point of 54 to 55 °C.

Consider `CC1(C)CCC(C)(C)c2cc(Oc3ccc(C=O)cc3)ccc21`, for which the melting point fell in the range of 75 to 76 °C. For `NS(=O)(=O)c1ccc(S(=O)(=O)NCc2cccs2)s1`, the melting point lay in the range of 146 to 148 °C.

`COC(=O)CCCC(=O)c1ccc(OCCCC/C=C/c2ccc(OC)cc2)c(O)c1`: the melting point lay within 78 to 80 °C. The figure for `CCOC(=O)CCN=c1sc2ccc(Cl)cc2s1` is 64 to 65 °C. The figure for `O=Cc1cnc(-c2ccc(C(CC3CCOCC3)c3ccc(S(=O)(=O)C4CC4)cc3)[nH]2)s1` (stereo unspecified) is 175 to 176 °C; for `CC(=O)Nc1ccc(C(C)(C)C)cc1OC(C)=O` it is 109 to 110 °C. `CC(=O)N1CCc2ccc(C(=O)CCCCl)cc2CC1` displayed a melting point of 103 to 106 °C. The figure for `CSc1c(C)[nH]c2cccc([N+](=O)[O-])c12` is 148 to 150 °C; for `COc1ccc(C2CCOCC2)c2sc(NC(=O)c3ccnc(CN4CCOCC4)c3)nc12` it is 199 to 201 °C. The result for `Cc1cccc(OC(=O)C(=O)c2c[nH]c3ccccc23)c1` reads 194 to 197 °C; that for `CNc1n[nH]c(=O)n1N=C(C)CC(C)C`, 136 °C. The result for `O=C(C1=Cc2ccccc2C1)C12CC3CC(CC(C3)C1)C2` reads 124 to 125 °C.

`COc1ccccc1C(=O)CN1c2nc(-c3ccncc3)cc(=O)n2CCC1c1ccccc1` (stereo unspecified): the melting point is 142 to 144 °C. The result for `CCOC(=O)C1(C(=O)OCC)CC(c2ccc(Cl)cc2N)=CN1C(C)=O` reads 152 to 153 °C. The result for `CS(=O)(=O)Nc1cccc(SCc2ccccc2)n1` reads 123 to 125 °C; that for `N#Cc1nn(-c2c(Cl)cc(C(F)(F)F)cc2Cl)c(-n2cccc2)c1S(=O)C(F)(F)F` (stereo unspecified), 165 to 167 °C; that for `O=C1C=CC(=O)C(CC(Cl)(Cl)Cl)=C1`, 115 °C. The result for `C#Cc1cnn2c(C3CC3)cc(-c3ccc(Cl)cc3)nc12` reads 181 to 182 °C; that for `CCOC(=O)Cn1c2cccccc-2c(C(C)=O)c1=O`, 162 to 165 °C. `N=C(Cc1ccccc1)Nc1ncccc1OCc1ccccc1`: the melting point lay in the range of 114 to 116 °C. The result for `COc1cc2c(cc1OC)C1Cc3cc4c(cc3CC(=O)N1CC2)OCO4` (stereo unspecified) reads 207 to 209 °C; that for `CN(C)n1c(Cl)n[nH]c1=O`, 158 °C.

Take `NS(=O)(=O)c1ccc(-c2c(-c3cccc(F)c3)noc2CC(=O)O)cc1`: the melting point fell in the range of 242 to 250 °C.

For `N#CC(NCCc1cccs1)c1ccccc1Cl` (stereo unspecified), the melting point is 40 to 41 °C. The result for `CCOc1cc2c(cc1OC)OC(C)(C)CC2=O` reads 86 to 87 °C. The figure for `CN(Cc1ccc(C=CC(=O)O)cc1)S(=O)(=O)c1ccccc1` is 112 °C; for `Cc1nc(N)nc(N)c1-c1cc(Cl)cc(Cl)c1Cl` it is 236 to 238 °C; for `O=C(O)c1ccc(-c2coc(-c3cccc(C(F)(F)F)c3)n2)cc1` it is 268 to 269 °C. The molecule `O=C1Cn2ccnc2-c2c(Br)cccc2N1` showed a melting point of 234 to 235 °C. Turning to `O=C(Cc1cccnn1)c1ccc(F)cc1F`, the melting point was 116 to 118 °C. The result for `C#CCn1cc(F)c(SC)nc1=O` reads 101 to 102 °C. The figure for `COc1cc2c(c3c1OC(C)(C)C3)C(c1cccc(C(=O)NCC(N)=O)c1)=NC(C)(C)C2` is 141 to 142 °C.

As to `Cc1ccc(C(=O)Nc2ccccc2C(CCC(=O)O)=NO)cc1`, the melting point is 165 to 168 °C.

For `CN1Cc2c(C#CC3(O)CCC3)ncn2-c2ccc(F)cc2C1=O`, the melting point lay within 177 to 179 °C. The figure for `O=C1c2ccccc2-c2[nH]c(=O)c(-c3ccccc3)nc21` is above 300 °C; for `COC(=O)c1oc2c(OC)cccc2c1O` it is 114 °C. In turn, `CCCc1nn(Cc2ccc(OCc3nc(-c4ccccc4)oc3C)cc2)cc1CCC(=O)O` displayed a melting point of 153 to 154 °C.

Regarding `COc1ccc(C2COC(c3c(F)cccc3Cl)=N2)cc1-c1ccccc1` (stereo unspecified), the melting point lay in the range of 80.5 to 82 °C. The figure for `CC1(C)CCc2c(Cl)cc(O)cc21` is 86.5 to 87.5 °C; for `CC(C)(CCCCCCCCCCC(C)(C)CCC(=O)O)CCC(=O)O` it is 71 to 72 °C; for `COc1cc2c(Nc3ccc(Sc4nccn4C)c(Cl)c3)c(C#N)cnc2cc1N1CCN(CCn2ccnc2)CC1` it is 251 to 253 °C. The molecule `CC(=O)CCc1ccc2c(c1)COc1ccc(OCc3ccc4cc(F)c(Cl)cc4n3)cc1C2SCCC(=O)O` (stereo unspecified) registered a melting point of 115 to 118 °C.

Consider `O=C(Cc1ccc(Cl)cc1Cl)c1ccncc1`, for which the melting point was found to be 77 °C.

For `Cc1ccc2nc(-c3ccccc3F)cc(OCc3ccccc3)c2c1`, the melting point lay in the range of 91.5 to 92.8 °C. The result for `COc1cc(S(C)(=O)=O)c(F)cc1OCCCl` reads 85 to 87 °C. The result for `Cc1c2c(c(C)c3c1NC(C)C3)OC(C)(C)C2` (stereo unspecified) reads 87 to 88 °C; that for `O=[N+]([O-])c1cccc2c1C1OC1CC2` (stereo unspecified), 67 °C; that for `N#CC(C#N)(OC(=O)c1ccc(Cl)c(Cl)c1)c1ccc(Cl)c(Cl)c1`, 110 °C. `O=C(CC(c1ccccc1)c1ccccc1)NCO`: the melting point lay within 149 to 151 °C. The figure for `O=C(O)c1cc(CO)nn1-c1ncccc1Cl` is 178 to 180 °C.

Take `CCCC(CCC)n1c(CC)nc2c1c(=O)n(C)c(=O)n2Cc1ccc(OC)cc1`: the melting point was in the range of 120 to 122 °C. The figure for `Cc1ccc(-c2cc(CNC(CO)CO)c(=O)n(CC(C)C)n2)cc1` is 134 to 135 °C.

These data come from a melting point compilation (Tetko et al.; mined from patent text by program, amines drawn as free bases though some values may be those of a salt).
